Measurements published in publication PMC4305367 (Cancer Chemotherapy and Pharmacology, 2014).
Entries after “also recorded” stand apart in the source; their conditions may differ.

Assays:
[1] = system: Japanese patients with castration-resistant prostate cancer; experiment: Phase 1 safety assessment: adverse events (NCI-CTCAE v3.0), DLT, laboratory profiles, ECG; type: in vivo, human
Description: The propriety of transitions to subsequent dose cohort was judged on the basis of the number of patients with dose-limiting toxicities (DLTs) during Cycle 1 (28 days). […] Patients could continue study treatment until criteria for treatment discontinuation were met. The use of aldosterone antagonists (e.g., eplerenone) was allowed for patients with clinical symptoms of mineralocorticoid excess such as hypertension, hypokalemia, and edema.
Safety assessments included the evaluation of adverse events (AEs), laboratory profiles, physical examination, and vital signs throughout the study. AEs were graded using National Cancer Institute Common Terminology Criteria for Adverse Events (NCI-CTCAE) v3.0. Analysis of serum amylase and lipase was added to the clinical laboratory tests before enrollment of patients into the 400-mg BID plus prednisolone cohort because pancreatitis was reported during the study. A safety follow-up was performed for 28 days after the final dose of the study treatment. During Cycle 1 (28 days), DLT was also evaluated. DLTs were defined as any drug-related AE of ≥ Grade 3 and pre-specified cardiac-related AEs of lower grade. Hypertension, hypokalemia, and edema attributed to increased ACTH secretion maintained at Grade 2 or lower through the use of eplerenone were not considered DLTs.

[2] = clinical; conditions: human, in vivo; for AUC(0-t): AUC0–8h; for Cmax: C max
[3] = male, human, in vivo, 24 h
[4] = system: serum testosterone; experiment: Pharmacodynamics: serum testosterone; type: in vivo, human; conditions: for Serum testosterone: mean (SD), LLOQ 0.05 or 0.03
Experimental: (§1) Endocrine parameters such as serum testosterone and dehydroepiandrosterone sulfate (DHEA-S) were measured for PD analysis. The blood sample were collected on Days 1, 8, 15, and 22 of Cycle 1 and then on Day 1 of each subsequent 28-day cycle. Assay procedure for testosterone was improved during the study, and the lower limit of quantification (LLOQ) for testosterone changed from 0.05 to 0.03 ng/mL.

[5] = system: dehydroepiandrosterone sulfate (DHEA-S); experiment: Pharmacodynamics: serum DHEA-S; type: in vivo, human; conditions: for Serum DHEA-S: mean (SD), LLOQ 2.0
Experimental: as §1

[6] = system: prostate-specific antigen (PSA); experiment: Serum PSA levels and PSA response (PCWG2 criteria); type: in vivo, human; conditions: during the study; 15 patients
Experimental: (§2) The efficacy endpoints were serum PSA levels, PSA response rates based on the Prostate Cancer Clinical Trials Working Group (PCWG) 2 criteria, and objective disease response rates based on the General Rule for Clinical and Pathological Studies on Prostate Cancer and modified RECIST version 1.0. PSA levels were measured on Days 1 and 15 in Cycle 1, on Day 1 of Cycle 2 and each subsequent cycle. Tumor assessments were performed on Day 29, 85, and every 12-week cycle for subsequent cycles.

[7] = system: castration-resistant prostate cancer; experiment: Objective disease response (General Rule for Prostate Cancer; modified RECIST 1.0); type: in vivo, human
Experimental: as §2

[8] = system: serum androgen levels; conditions: monkeys; cited from earlier work
[9] = General Rule for Clinical and Pathological Studies on Prostate Cancer, 15 patients

SMILES: CNC(=O)c1ccc2cc([C@@]3(O)CCn4cncc43)ccc2c1 [Orteronel]
- Deaths ([1]; during the study, 15 patients): No deaths were reported
- Number of SAEs considered related to the study treatment ([1]; in vivo): nine
- Patients with acute pancreatitis (Grades 2 and 3) or pancreatitis (Grade 1) ([1]; in vivo): three
- Patients with pancreatic-related AEs ([1]; in vivo): ten
- Serious AEs (SAEs) in Cycle 1 ([1]; in vivo): Neither DLTs nor serious AEs (SAEs) were reported
- TEAEs associated with adrenal insufficiency ([1]; in vivo): No TEAE associated with adrenal insufficiency was reported
- Treatment-related SAEs in the 200- and 300-mg BID cohorts ([1]; in vivo): No treatment-related SAE was observed
- 12-lead ECG and echocardiography findings ([1]; male, human, in vivo): No clinically significant abnormal 12-lead ECG and echocardiography findings were observed
- Abnormalities in hematologic test or urinalysis ([1]; male, human, in vivo): No Grade 3 or higher abnormalities were observed
- Incidence of constipation (AE) ([1]; male, human, in vivo): 33%
- Incidence of hyperamylasemia (AE) ([1]; male, human, in vivo): 40%
- Incidence of hyperlipasemia (AE) ([1]; male, human, in vivo): 47%
- Mineralocorticoid-related TEAE: hypertension ([1]; male, human, in vivo): 4 n
- Mineralocorticoid-related TEAE: hypokalemia ([1]; male, human, in vivo): 3 n
- Patients who experienced SAEs ([1]; male, human, in vivo): 60%
- Patients with at least 1 TEAE ([1]; male, human, in vivo): 100%
- Patients with at least 1 treatment-related AE ([1]; male, human, in vivo): 93%
- TEAE subject incidence: Abdominal pain upper ([1]; male, human, in vivo): 2 (13) n (%)
- TEAE subject incidence: Blood creatine phosphokinase increased ([1]; male, human, in vivo): 2 (13) n (%)
- TEAE subject incidence: Constipation ([1]; male, human, in vivo): 5 (33) n (%)
- TEAE subject incidence: Contusion ([1]; male, human, in vivo): 2 (13) n (%)
- TEAE subject incidence: Dysgeusia ([1]; male, human, in vivo): 4 (27) n (%)
- TEAE subject incidence: Fall ([1]; male, human, in vivo): 2 (13) n (%)
- TEAE subject incidence: Hepatic function abnormal ([1]; male, human, in vivo): 4 (27) n (%)
- TEAE subject incidence: Insomnia ([1]; male, human, in vivo): 2 (13) n (%)
- TEAE subject incidence: Malaise ([1]; male, human, in vivo): 4 (27) n (%)
- TEAE subject incidence: Nasopharyngitis ([1]; male, human, in vivo): 3 (20) n (%)
- TEAE subject incidence: Nausea ([1]; male, human, in vivo): 3 (20) n (%)
- TEAE subject incidence: Rash ([1]; male, human, in vivo): 3 (20) n (%)
- TEAE subject incidence: Vomiting ([1]; male, human, in vivo): 2 (13) n (%)
- Total number of SAEs ([1]; male, human, in vivo): 14 SAEs
- AUC(0-t) ([2]; 300 mg): 14500 ng·h/mL
- AUC(0-t) ([2]; 400 mg): 28600 ng·h/mL
- Time to C max (T max), range over cohorts ([2]; male): 1 to 3 h
- Tmax ([2]; male, 200 mg): 1 h
- AUC(0-t) ([2]; male, 200 mg): 7640 ng·h/mL
- Cmax ([2]; male, 200 mg): 1580 ng/mL
- Tmax ([2]; male, 300 mg): 3 h
- Cmax ([2]; male, 300 mg): 3100 ng/mL
- Tmax ([2]; male, 400 mg): 2.97 h
- Cmax ([2]; male, 400 mg): 4700 ng/mL
- Fractional urinary excretion rate [3]: 36 to 47 % of the dose
- Serum testosterone ([4]; Cycle 1 Day 8, 200 mg BID (N = 3), screening 0.153 (0.0611)): 0.050 (0.0000) ng/mL
- Serum testosterone ([4]; Cycle 1 Day 8, 300 mg BID (N = 3), screening 0.123 (0.0702)): 0.030 (0.0000) ng/mL
- Serum testosterone ([4]; Cycle 1 Day 8, 300 mg BID + prednisolone (N = 3), screening 0.127 (0.0473)): 0.030 (0.0000) ng/mL
- Serum testosterone ([4]; Cycle 1 Day 8, 400 mg BID (N = 3), screening 0.057 (0.0115)): 0.050 (0.0000) ng/mL
- Serum testosterone ([4]; Cycle 1 Day 8, 400 mg BID + prednisolone (N = 3), screening 0.053 (0.0058)): 0.043 (0.0115) ng/mL
- Serum testosterone ([4]; Cycle 2 Day 1, 200 mg BID (N = 3), screening 0.153 (0.0611)): 0.050 (0.0000) ng/mL
- Serum testosterone ([4]; Cycle 2 Day 1, 300 mg BID (N = 3), screening 0.123 (0.0702)): 0.030 (0.0000) ng/mL
- Serum testosterone ([4]; Cycle 2 Day 1, 300 mg BID + prednisolone (N = 3), screening 0.127 (0.0473)): 0.030 (0.0000) ng/mL
- Serum testosterone ([4]; Cycle 2 Day 1, 400 mg BID (N = 3), screening 0.057 (0.0115)): 0.050 (0.0000) ng/mL
- Serum testosterone ([4]; Cycle 2 Day 1, 400 mg BID + prednisolone (N = 3), screening 0.053 (0.0058)): 0.037 (0.0115) ng/mL
- Suppression of serum testosterone ([4]; by 1 week after initiation (Day 8), across all cohorts): rapidly suppressed below the lower limit of quantification; also recorded: rapidly suppressed to the LLOQ or lower
- Serum DHEA-S ([5]; Cycle 1 Day 8, 200 mg BID (N = 3), screening 114.7 (8.96)): 25.0 (7.21) μg/dL
- Serum DHEA-S ([5]; Cycle 1 Day 8, 300 mg BID (N = 3), screening 146.7 (79.83)): 23.3 (14.57) μg/dL
- Serum DHEA-S ([5]; Cycle 1 Day 8, 300 mg BID + prednisolone (N = 3), screening 136.0 (52.68)): 6.3 (4.16) μg/dL
- Serum DHEA-S ([5]; Cycle 1 Day 8, 400 mg BID (N = 3), screening 60.3 (8.50)): 9.3 (0.58) μg/dL
- Serum DHEA-S ([5]; Cycle 1 Day 8, 400 mg BID + prednisolone (N = 3), screening 40.3 (7.57)): 2.3 (0.58) μg/dL
- Serum DHEA-S ([5]; Cycle 2 Day 1, 200 mg BID (N = 3), screening 114.7 (8.96)): 30.0 (9.64) μg/dL
- Serum DHEA-S ([5]; Cycle 2 Day 1, 300 mg BID (N = 3), screening 146.7 (79.83)): 24.3 (11.93) μg/dL
- Serum DHEA-S ([5]; Cycle 2 Day 1, 300 mg BID + prednisolone (N = 3), screening 136.0 (52.68)): 2.3 (0.58) μg/dL
- Serum DHEA-S ([5]; Cycle 2 Day 1, 400 mg BID (N = 3), screening 60.3 (8.50)): 19.3 (16.29) μg/dL
- Serum DHEA-S ([5]; Cycle 2 Day 1, 400 mg BID + prednisolone (N = 3), screening 40.3 (7.57)): 2.0 (0.00) μg/dL
- Suppression of serum DHEA-S ([5]; Day 8): suppressed
- Overall median maximum PSA reduction [6]: 88.48%
- Objective response rate (CR + PR) ([7]; General Rule for Clinical and Pathological Studies on Prostate Cancer, 5/15 patients): 33%
- Best response of complete response (CR) [7, 9]: no patient had a best response of complete response (CR)
- Patients with best response of partial response (PR) [7, 9]: five
- Best response by modified RECIST version 1.0 ([7]; only six patients had measurable disease): No patient had a best response of CR or PR
- Effect on serum androgen levels in vivo [8]: reduced serum androgen levels
